Publication PMC5589751, “Synthesis, high-throughput screening and pharmacological characterization of β–lactam derivatives as TRPM8 antagonists” (Scientific Reports, 2017)

Legend:
Format in all cases: cell-based
TRPV1 = TRPV1 (Rattus norvegicus, UniProt O35433); experiment: Ca2+ microfluorography (Fluo-4 NW), capsaicin-induced Ca2+ signal in SH-SY5Y-TRPV1 cells; conditions: 50 µM compound; agonist 10 µM capsaicin; SH-SY5Y-TRPV1 cells
Procedure: All compounds were tested at two different concentrations (50 and 5 µM) on TRPM8 and TRPV1 channels stably expressed in HEK and SH-SY5Y cell lines, respectively. The agonist induced intracellular Ca^2+ signals were measured using a fluorescent Ca^2+ indicator, in the absence and in the presence of test compounds. […] The obtained results were compared to those of 68 (AMTB, TRPM8 antagonist) and ruthenium red (TRPV1 antagonist). The IC50 values for the assay on TRPM8 were also calculated.
For fluorescence assays, cells expressing TRP channels (SH-SY5Y-TRPV1 and HEKCR1-TRPM8) were seeded in 96-well plates (Corning Incorporated, Corning, NY) at a cell density of 40,000 cells 2 days before treatment. The day of treatment the medium was replaced with 100 µL of the dye loading solution Fluo-4 NW supplemented with probenecid 2.5 mM. Then the compounds dissolved in DMSO were added at the desired concentrations and the plate(s) were incubated at 37 °C in a humidified atmosphere of 5% CO2 for 60 minutes.
The fluorescence was measured using instrument settings appropriate for excitation at 485 nm and emission at 535 nm (POLARstar Omega BMG LABtech). […] The corresponding antagonist
(10 µM Ruthenium Red forTRPV1 and 10 µM 68 for TRPM8) was added for the blockade. The changes in fluorescence intensity were recorded during 15 cycles more. […] The blocking percentage was calculated as follow (Eq. 1):1 %TRPBlockedResponse=(1−Fo−Fi/FCo−FCi)∗100 where Fo is the fluorescence after the addition of menthol in the presence of the compound, Fi is the fluorescence before the addition of menthol in the presence of the compound, FCo is the fluorescence after the addition of menthol in the absence of the compound, FCi is the fluorescence before the addition of menthol in the absence of the compound. To guarantee that our results were useful we only used assays with a Z-factor higher than 0.5.
The statistical Z-factor to determine the quality of the HTS experiment as was calculated using the equation 2:2 Z‐factor=1−3∗(SDmax+SDmin)/Meanmax−Meanmin where: Meanmax is the mean of the maximum fluorescence in the presence of agonist, SDmax is the standard deviation of the maximum fluorescence in the presence of agonists, Meanmin is the mean of the maximum fluorescence in the presence of agonist and antagonist and SDmin is the standard deviation of the maximum fluorescence in the presence of agonist and antagonist.

hTRPV1 = biological target: T1, hTRPV1 (Homo sapiens, UniProt Q8NER1); experiment: Whole-cell patch clamp in cells expressing hTRPV1
T1 construct: expressed in transfected cells; host or cells: HEK
Procedure: Electrophysiological recording was carried out 1-3 d after cells seeded. Membrane currents and voltages were recorded by patch clamp using the whole-cell configuration. […] In calcium-free bath solution, CaCl2 was replaced with 5mM EGTA. For potassium and sodium recordings, CsCl was substituted by KCl and the pH was adjusted to pH 7.2 with KOH. Patch pipettes were prepared from thin-walled borosilicate glass capillaries (World Precision Instruments, Sarasota, FL, USA), pulled with a horizontal puller (P-97, Sutter Instruments, Novato, CA, USA) to have a tip resistance of 2-4 MΩ when filled with internal solutions. Data were sampled at 10 kHz (EPC10 amplifier with PatchMaster 2.53 software, HEKA Electronics, Lambrecht, Germany) and low-pass filtered at 3 kHz for analysis (PatchMaster 2.53 and GraphPad Prism 5, Graphpad Software, USA). The series resistance was <10 MΩ and to minimize voltage errors was compensated to 60-80%. All measurements were performed at 24-25°C. The temperature was adjusted with a water-cooled Peltier device placed at the inlet of the chamber and controlled by a feedback device (Automatic Temperature Controller TC-324B, Warner Instruments). Cold-sensitivity was investigated with a temperature decrease to 16-18 °C. page 44: Figure 1S. […] A) […] compound 41 (blue line). Pre-application of compound (20 s) was followed by coapplication with 500 […] 41. […] C) […] Pre-application of […] Voltage was held at -60 mV for all the experiments. […] (1 picture or pasted object on this page, not shown here)

Kv1.1 = Kv1.1 (Homo sapiens, UniProt Q09470); experiment: Whole-cell patch clamp in cells expressing Kv1.1
Procedure: Electrophysiological recording was carried out 1–3 d after cells seeded. Membrane currents and voltages were recorded by patch clamp using the whole-cell configuration. For whole-cell recordings of HEK-hTRPV1 and HEK-TRPM8 cells, pipette solution contained (in mM) 140 CsCl, 5 EGTA, and 10 HEPES, adjusted to pH 7.2 with CsOH, and bath solution contained (in mM) 140 NaCl, 5 KCl, 2 CaCl2, 2 MgCl2, 5 EGTA, 10 D-glucose, 10 Mannitol and 10 HEPES, adjusted to pH 7.4 with NaOH. In calcium-free bath solution, CaCl2 was replaced with 5mM EGTA. For potassium and sodium recordings, CsCl was substituted by KCl and the pH was adjusted to pH 7.2 with KOH. Patch pipettes were prepared from thin-walled borosilicate glass capillaries (World Precision Instruments, Sarasota, FL, USA), pulled with a horizontal puller (P-97, Sutter Instruments, Novato, CA, USA) to have a tip resistance of 2–4 MΩ when filled with internal solutions. Data were sampled at 10 kHz (EPC10 amplifier with PatchMaster 2.53 software, HEKA Electronics, Lambrecht, Germany) and low-pass filtered at 3 kHz for analysis (PatchMaster 2.53 and GraphPad Prism 5, Graphpad Software, USA). The series resistance was <10 MΩ and to minimize voltage errors was compensated to 60–80%. All measurements were performed at 24–25°C. […]

HEK-CR1 cells = experiment: MTT-based assay of cytotoxicity; conditions: 24 hours incubation; three concentrations
Procedure: Figure 2S. Effect of derivative 41 and 45 on MTT-based assay of cytotoxicity in HEK-CR1 cells.
A) Cell survival after 24 hours incubation at three concentrations of derivative 41 or B) derivative 45.
Each value is expressed as mean ± SEM. n ≥ 4, ANOVA with Bonferroni post hoc test (*** p < 0.001).
Cell viability assay (MTT)
Cell viability was assessed by the detection of mitochondrial activity in living cells using a modified colorimetric analysis of Blue Tetrazolium Bromide Thiazolyl (MTT). Briefly, HEK293 cells (2 × 10^4 cells/well) were subcultured in 96-well plates, grown until 80–90% confluence, and incubated with increasing concentrations of testing compounds for 24 h. Following treatment, 10 μL of MTT solution (5 mg/mL in phosphate buffered saline) was added to each well and further incubated for 4 h at 37 °C. Subsequently, 100 μL of DMSO was added to each well to dissolve any deposited formazan resulting from cleavage and reduction of MTT by active mitochondrial dehydrogenases. The optical density of each well was measured at 540 nm with a microplate reader (Polastar BMG LABTECH, […]
(1 picture or pasted object on this page, not shown here)

T1 sequence (Q8NER1 whole entry): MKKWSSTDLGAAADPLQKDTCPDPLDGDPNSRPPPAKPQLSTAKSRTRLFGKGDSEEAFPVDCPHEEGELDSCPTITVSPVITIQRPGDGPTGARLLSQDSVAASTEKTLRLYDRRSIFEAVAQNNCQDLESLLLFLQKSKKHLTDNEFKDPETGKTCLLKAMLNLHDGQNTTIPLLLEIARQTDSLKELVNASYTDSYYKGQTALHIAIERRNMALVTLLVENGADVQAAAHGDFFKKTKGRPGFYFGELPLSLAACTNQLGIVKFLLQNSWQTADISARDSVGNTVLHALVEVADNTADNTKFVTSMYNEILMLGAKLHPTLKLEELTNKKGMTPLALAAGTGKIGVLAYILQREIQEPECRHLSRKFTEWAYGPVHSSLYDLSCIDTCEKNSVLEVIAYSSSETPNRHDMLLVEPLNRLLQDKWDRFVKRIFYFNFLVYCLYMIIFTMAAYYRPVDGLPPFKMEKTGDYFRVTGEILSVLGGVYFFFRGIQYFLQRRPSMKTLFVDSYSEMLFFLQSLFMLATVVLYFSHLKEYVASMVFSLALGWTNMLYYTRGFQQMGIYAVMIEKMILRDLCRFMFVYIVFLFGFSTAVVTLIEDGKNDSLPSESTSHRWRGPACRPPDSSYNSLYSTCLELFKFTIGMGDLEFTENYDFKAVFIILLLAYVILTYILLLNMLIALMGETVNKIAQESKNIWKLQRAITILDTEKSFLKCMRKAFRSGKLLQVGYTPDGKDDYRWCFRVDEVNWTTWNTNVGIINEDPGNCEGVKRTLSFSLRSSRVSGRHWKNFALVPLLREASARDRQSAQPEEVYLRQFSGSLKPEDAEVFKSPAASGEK
Chain of TRPV1 (O35433 whole entry): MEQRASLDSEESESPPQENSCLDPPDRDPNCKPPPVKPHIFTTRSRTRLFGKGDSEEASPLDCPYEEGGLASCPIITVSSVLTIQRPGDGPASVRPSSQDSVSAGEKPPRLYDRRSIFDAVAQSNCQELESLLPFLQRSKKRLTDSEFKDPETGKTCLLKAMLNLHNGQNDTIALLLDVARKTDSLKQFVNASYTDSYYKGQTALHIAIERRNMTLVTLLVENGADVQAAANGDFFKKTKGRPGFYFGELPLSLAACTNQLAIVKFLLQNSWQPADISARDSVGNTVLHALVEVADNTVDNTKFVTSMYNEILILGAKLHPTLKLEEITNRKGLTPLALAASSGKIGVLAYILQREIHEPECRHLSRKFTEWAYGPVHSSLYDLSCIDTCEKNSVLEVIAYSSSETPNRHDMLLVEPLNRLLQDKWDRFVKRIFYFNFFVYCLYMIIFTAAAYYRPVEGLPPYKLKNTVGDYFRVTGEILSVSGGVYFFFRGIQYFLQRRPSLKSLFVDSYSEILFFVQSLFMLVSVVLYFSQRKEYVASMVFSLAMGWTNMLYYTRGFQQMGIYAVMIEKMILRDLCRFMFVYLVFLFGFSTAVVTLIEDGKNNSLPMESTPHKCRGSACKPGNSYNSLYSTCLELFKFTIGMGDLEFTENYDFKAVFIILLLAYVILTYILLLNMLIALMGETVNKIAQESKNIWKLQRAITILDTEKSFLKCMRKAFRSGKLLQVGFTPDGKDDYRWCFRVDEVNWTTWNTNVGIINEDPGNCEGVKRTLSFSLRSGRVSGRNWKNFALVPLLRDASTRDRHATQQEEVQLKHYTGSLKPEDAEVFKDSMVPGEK
Chain of Kv1.1 (Q09470 whole entry): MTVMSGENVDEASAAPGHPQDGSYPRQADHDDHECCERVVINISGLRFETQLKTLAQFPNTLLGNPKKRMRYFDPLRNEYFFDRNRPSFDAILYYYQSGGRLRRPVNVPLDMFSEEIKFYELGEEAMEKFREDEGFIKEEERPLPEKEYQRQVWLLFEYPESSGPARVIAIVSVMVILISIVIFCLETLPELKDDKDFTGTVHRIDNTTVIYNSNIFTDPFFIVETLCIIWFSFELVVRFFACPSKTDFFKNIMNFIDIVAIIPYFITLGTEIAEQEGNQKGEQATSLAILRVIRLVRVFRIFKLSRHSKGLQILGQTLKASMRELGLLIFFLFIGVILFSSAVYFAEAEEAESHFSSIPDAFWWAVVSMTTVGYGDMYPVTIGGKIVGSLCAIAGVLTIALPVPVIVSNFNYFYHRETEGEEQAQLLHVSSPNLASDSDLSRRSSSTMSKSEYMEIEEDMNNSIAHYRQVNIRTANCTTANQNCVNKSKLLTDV

| Structure (SMILES) | % Block TRPV1 50 µM (TRPV1) | IC50 (hTRPV1) | agonist activity (activation) on TRPV1 (hTRPV1; 1 µM compound, −60 mV) | IC50 (Kv1.1) | cytotoxicity in the MTT assay (HEK-CR1 cells) |
| --- | --- | --- | --- | --- | --- |
| CC(C)(C)OC(=O)N[C@@H](CCN1C(=O)CC1(Cc1ccccc1)C(=O)OCc1ccccc1)C(=O)OCc1ccccc1 (stereo partly drawn) [Compound 41, 4R,S-Benzyl-4-benzyloxycarbonyl-1-[(3′S-benzyloxycarbonyl-3-tert-butoxycarbonylamino-3′-benzyloxycarbonyl)prop-1′-yl]-2-oxoazetidine] | 38.3 ± 17.9% | > 1000 nM | did not produce activation | > 1000 nM | did not display apparent cytotoxicity |
| CC1C(=O)N(CC[C@H](NC(=O)OC(C)(C)C)C(=O)OCc2ccccc2)C1(Cc1ccccc1)C(=O)OCc1ccccc1 (stereo partly drawn) [Compound 45, 4R,S-Benzyl-4-benzyloxycarbonyl-1-[(3′S-benzyloxycarbonyl-3′-tert-butoxycarbonylamino)prop-1′-yl]-(3R,S)-methyl-2-oxoazetidine] | 31.8 ± 6.5% | > 1000 nM | – | > 1000 nM | did not display apparent cytotoxicity |
